pIC50: −log10 of the molar value.
Molecular target: T1, recombinant human PTP1B (Homo sapiens, UniProt P18031)
T1 construct: without the carboxy terminal hydrophobic region (corresponding to 1-299 aa); FLAG (N); made in house; host or cells: Sf9 insect cells (baculovirus, Bac-to-Bac)
T1 sequence (P18031 1-299): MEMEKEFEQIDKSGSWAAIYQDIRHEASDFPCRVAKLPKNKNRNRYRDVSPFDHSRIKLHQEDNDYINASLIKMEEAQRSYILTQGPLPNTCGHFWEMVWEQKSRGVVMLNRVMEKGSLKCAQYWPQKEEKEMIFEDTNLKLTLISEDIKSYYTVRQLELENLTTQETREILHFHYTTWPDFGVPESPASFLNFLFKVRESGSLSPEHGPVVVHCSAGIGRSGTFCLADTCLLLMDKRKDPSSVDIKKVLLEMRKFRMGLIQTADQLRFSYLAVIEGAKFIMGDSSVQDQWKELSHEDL
Assay: Inhibiting phosphotyrosine phosphatase 1B (PTP1B), in-vitro phosphatase assay
Format: biochemical
Conditions: Table 2 Biological activity; substrate variant (phosphopeptide, p-nitrophenyl phosphate or DIFMUP) not stated
Description: Inhibiting Phosphotyrosine Phosphatase 1B (PTP1B)
The setting up and implementation of an in-vitro assay for detecting a phosphatase-inhibiting effect of the compounds according to the invention are described below. The isolation of the enzyme preparation and the implementation of the assay are described. […]
This assay is based on releasing phosphate from a consensus substrate peptide which is detected in the nanomolar concentration range using the malachite green/ammonium molybdate method (Lanzetta, P. A., Alvarez, L. J., Reinach, P. S., Candia, O. A. Anal Biochem. 100: 95-97, 1979) as adapted for the microtiter plate format. […] After incubating at 22° C. for 30 min, in order to develop the color, the absorption at 650 nm was determined using a microtiter plate reader (Molecular Devices). Samples and blanks were measured in triplicate. The PTP1B activity was calculated as nanomoles of phosphate released per min and mg of protein using potassium phosphate as the standard. The inhibition of the recombinant hPTP1B by test substances was calculated as percentages of the phosphatase control. […]

CCCCn1nc(-c2cccc(Oc3ccccc3)c2)nc2c(=O)n(C)c(=O)nc1-2 [compound 5]
pIC50: 5.28

From patent publication US7737144B2, “Pyrimido[5,4-e][1,2,4]triazine-5-7-diones, processes for preparing them and their use” (Sanofi-Aventis Deutschland GmbH, priority 2003, dated 2010)
